This is an account of results in PMC6214853, “Cytotoxic, tubulin-interfering and proapoptotic activities of 4′-methylthio-trans-stilbene derivatives, analogues of trans-resveratrol” (Cytotechnology, 2018).

Experiment [1] concerns A431 cells. The experiment in a line: MTT cell viability assay, A431. The class given is cell-based. As to conditions: Homo sapiens, A-431, A431, 48 h treatment. How it is done: (§1) Spontaneously immortalized human keratinocyte HaCaT cells were purchased from Cell Lines Service (CLS, Eppelheim, Germany). Human epidermoid carcinoma A431 cells were obtained from Deutsche Sammlung von Mikroorganismen und Zellkulturen (DSMZ, Braunschweig, Germany). MCF7 (ECACC 86012803) and MCF12A (ECACC10782) cells were purchased from the European Collection of Cell Cultures (Salisbury, Wiltshire, UK). MCF12A cells were cultured in 95% 1:1 mixture of DMEM and Ham’s F12 medium, 20 ng/mL human epidermal growth factor, 500 ng/mL hydrocortisone and 5% horse serum. The other cell lines were cultured in Dulbecco’s modified Eagle’s medium (DMEM) supplemented with 10% fetal bovine serum and 1% (v/v) antibiotics solution. Cells were incubated at 37 °C in an atmosphere consisting of 95% air and 5% CO2 in a humidified incubator until they reached 70% confluency. 1 × 10^6 cells were seeded in 40 mm ø culture dishes. After 24 h of preincubation in DMEM containing 5% of FBS, the cells were treated with resveratrol or its analogs, and the incubation was continued for a subsequent 24 h to assess apoptosis or cell cycle distribution. Then, the cells were harvested. Control cells were treated with DMSO, at a concentration of less than 0.1%.
(§2) The effect of resveratrol and 4′-methylthiostilbenes on cell viability was assessed with MTT assay according to the standard protocol described earlier (Zielińska-Przyjemska et al. [2015]). Briefly, the cells were seeded in 96-well plates at a density of 1 × 10^4 cells/well in 100 μL of growth medium. They were allowed to attach overnight and either resveratrol or the appropriate analog was then added to the culture medium at various concentrations (0–200 μM) for 48 h at 37 °C. The cells were subsequently incubated with MTT (0.5 mg/mL) solution for another 4 h. The water insoluble formazan crystals were solubilized in acidic isopropanol before the measurement of absorbance using a microplate reader (TECAN Infinite M200, TK Biotech, Warsaw, Poland) at 540 and 690 nm. All of the experiments were repeated three times, with at least three measurements per assay.
On the technique in general: Formazan colour is commonly taken as a measure of viable cells.

The subject of experiment [2] is MCF7 cells. The experiment in a line: MTT cell viability assay, MCF7. The experiment is classed as cell-based, human. As to conditions: MCF7, 48 h treatment. How it is done:
as §1, §2

The test system of experiment [3] is HaCaT cells. Kind of experiment: MTT cell viability assay, HaCaT. The class given is cell-based. As to conditions: Homo sapiens, 48 h treatment. How it is done:
as §1, §2

Experiment [4] relates to MCF12A, MCF7, HaCaT and A431 cell lines. The experiment in a line: TUNEL assay. The class given is cell-based, human. As to conditions: 24 h incubation, versus control. As for the experimental part: as §1
TUNEL assay was applied to detect apoptotic cells using In Situ Cell Death Detection Kit (Roche Diagnostics, Indianapolis, IN, USA). Briefly, after incubation with the test compounds for 24 h, the cells were detached with a 0.5% trypsin–EDTA solution and collected. Cell suspensions were fixed with 4% paraformaldehyde and permeabilized with 0.1% Triton X-100 in 0.1% sodium citrate. After the TUNEL reaction mixture was added, cells were incubated for 1 h at 37 °C in a humidified chamber and samples were analyzed by FACSCanto Flow Cytometer (Becton–Dickinson). Camptothecin at a final concentration of 50 nM was used as a positive control.

The target of the next experiment is T1, purified porcine tubulin (Sus scrofa, UniProt P02554).
T1 construct: purified porcine tubulin purchased from Cytoskeleton Inc; purchased Cytoskeleton Inc. (Denver, CO, USA)
T1 sequence (P02554 whole entry): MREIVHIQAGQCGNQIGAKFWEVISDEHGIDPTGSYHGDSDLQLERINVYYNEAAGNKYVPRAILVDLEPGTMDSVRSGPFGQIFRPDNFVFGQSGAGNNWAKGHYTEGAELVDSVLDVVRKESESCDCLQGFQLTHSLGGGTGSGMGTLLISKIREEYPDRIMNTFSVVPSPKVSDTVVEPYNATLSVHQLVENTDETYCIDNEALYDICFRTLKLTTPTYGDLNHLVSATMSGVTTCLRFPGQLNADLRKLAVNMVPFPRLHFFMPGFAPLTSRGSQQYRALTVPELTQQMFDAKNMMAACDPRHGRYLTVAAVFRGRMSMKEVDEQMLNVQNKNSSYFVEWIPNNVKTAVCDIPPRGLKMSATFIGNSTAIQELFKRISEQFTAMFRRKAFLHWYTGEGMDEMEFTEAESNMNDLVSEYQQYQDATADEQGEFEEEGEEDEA
T1 sequence (P02550 whole entry partner): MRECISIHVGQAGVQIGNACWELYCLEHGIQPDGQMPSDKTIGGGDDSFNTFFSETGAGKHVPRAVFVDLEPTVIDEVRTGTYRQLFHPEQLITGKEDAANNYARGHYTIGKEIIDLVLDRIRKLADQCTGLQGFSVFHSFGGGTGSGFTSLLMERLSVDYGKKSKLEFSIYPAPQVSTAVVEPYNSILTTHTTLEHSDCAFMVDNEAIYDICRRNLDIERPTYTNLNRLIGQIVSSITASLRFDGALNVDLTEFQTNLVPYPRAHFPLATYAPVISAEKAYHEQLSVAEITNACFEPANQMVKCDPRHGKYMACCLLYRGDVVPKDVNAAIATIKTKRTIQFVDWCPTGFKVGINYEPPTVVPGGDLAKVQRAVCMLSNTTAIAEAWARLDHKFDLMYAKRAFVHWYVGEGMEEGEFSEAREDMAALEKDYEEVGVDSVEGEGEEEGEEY
Kind of experiment: Tubulin polymerization assay in vitro. As to conditions: absorbance at steady state. The class given is biochemical. How it is done: Tubulin polymerization was assessed with the use of purified porcine tubulin purchased from Cytoskeleton Inc. (Denver, CO, USA) in accordance with a protocol recommended by the manufacturer. Tubulin was dissolved in a buffer containing: 80 mM PIPES pH 6.9, 2 mM MgCl2, 0.5 mM EGTA and 1 mM GTP, at a final concentration of 3 mg/mL and placed in a 96-well plate (0.3 mg per well). The polymerization reaction was started by increasing temperature from 4 to 37 °C upon transfer of the reaction mixture to a pre-warmed plate. The assembly of microtubules was monitored spectrophotometrically by measuring absorbance at 350 nm for 60 min, at a temperature of 37 °C. Paclitaxel was used as stabilizing positive control.

In experiment [5] the test system is MCF12A cells. The experiment in a line: Flow cytometry cell cycle analysis, MCF12A. As to conditions: 24 h incubation, PI flow cytometry. The experiment is classed as cell-based, human. As for the experimental part:
as §1
(§3) The cells harvested after a 24 h incubation with the test compounds were washed with 1 mL of PBS and fixed with 70% ethanol. The ethanol was added dropwise to the cell pellet while vortexing to ensure fixation of all cells and minimizing clumping. After a 30 min incubation, the cells were washed twice in PBS, and 250 µL of a solution containing 50 µg/mL PI, 100 µg/mL RNase A (Sigma, St. Louis, MO, USA) in PBS was added to the pellet and incubated for 30 min at 37 °C in the dark. The stained cells were analyzed by FACSCanto Flow Cytometer (Becton–Dickinson). Camptothecin at a final concentration of 50 nM was used as a positive control. Data analysis and acquisition were performed using FACS Diva software (Becton–Dickinson).
In general terms: A flow cytometer gives signals particle by particle.

The test system of experiment [6] is MCF7 cells. Kind of experiment: Flow cytometry cell cycle analysis, MCF7. The experiment is classed as cell-based, human. Particulars: MCF7, 24 h incubation, PI flow cytometry. How it is done:
as §1, §3

The test system of experiment [7] is MCF12A cells. The experiment in a line: MTT cell viability assay, MCF12A. The experiment is classed as cell-based. As to conditions: Homo sapiens, MCF-12A, 48 h treatment. As for the experimental part:
as §1, §2

For experiment [8], the system named is MCF12A, MCF7, HaCaT and A431 cell lines. The experiment in a line: Annexin-V/propidium iodide assay. The class given is cell-based, human. As to conditions: 24 h incubation, all four cell lines. How it is done: as §1
Apoptosis and necrosis were detected using Annexin-V-FLUOS Staining Kit assay (Roche Diagnostics GmbH, Mannheim, Germany), according to the manufacturer’s instruction. After have been treated with test compounds for 24 h, the cells were transferred (1 × 10^6 cells in 100 µL of the solution) into 5 mL culture tubes followed by the addition of 2 µL of Annexin-V-Fluos and 2 µL PI. Camptothecin at a final concentration of 50 nM was used as a positive control. Samples were gently mixed and incubated for 15 min at RT (25 °C) in the dark. Fluorescence of cell surface (AV) and DNA-bound PI markers was analyzed with flow cytometry (Becton–Dickinson, San Jose, CA, USA) at 488 nm excitation wavelength, emission 518 and 617 nm for AV and PI, respectively.

Experiment [9] relates to A431 cells. The experiment in a line: Flow cytometry cell cycle analysis, A431. The experiment is classed as cell-based, human. As to conditions: A431, 24 h incubation, PI flow cytometry. How it is done: as §1, with “Control cells were treated with DMSO, at a concentration of less than 0.1%.” left out
(§4) The cells harvested after a 24 h incubation with the test compounds were washed with 1 mL of PBS and fixed with 70% ethanol. […] The stained cells were analyzed by FACSCanto Flow Cytometer (Becton–Dickinson). […]

Experiment [10] deals with MCF7 cells. Set-up: method as in Androutsopoulos et al. [2011]. As to conditions: 96 h exposure; ref Androutsopoulos et al. [2011]; cited from earlier work.
The subject of another experiment is tubulin. Details: method as in Ma and coworkers ([2008]). As to conditions: ref Ma and coworkers ([2008]), cited from earlier work.
The test system of experiment [11] is HaCaT cells. Kind of experiment: Flow cytometry cell cycle analysis, HaCaT. The experiment is classed as cell-based, human. Particulars: 24 h incubation, PI flow cytometry. How it is done:
as §1, with “Control cells were treated with DMSO, at a concentration of less than 0.1%.” left out
as §4

Several values for one entry are separate records, joined by “and”; a condition that tells them apart may be missing. Equal entries are not always repeated.

As usually defined, the IC50 is the concentration needed to halve the response being measured. As to `COc1cccc(/C=C/c2ccc(SC)cc2)c1OC` [2,3-Dimethoxy-4′-methylthio-trans-stilbene], the half-inhibitory concentration (IC50) in the experiment with A431 cells [1] was 157 ± 3 µM; in the experiment on MCF7 cells [2] (Homo sapiens, MCF7, 48 h) it was 10.6 ± 6.1 µM; in the experiment with HaCaT cells [3] it was 51.8 ± 7.3 µM.

As for `COc1cc(OC)c(OC)cc1/C=C/c1ccc(SC)cc1` [2,4,5-MTS, 2,4,5-Trimethoxy-4′-methylthio-trans-stilbene], in [4], the “Number of TUNEL positive cells” value is “statistically significant increase in the number of TUNEL positive cells was observed only in HaCaT and A431”. In addition, the “Tubulin polymerization, steady state level” value at purified porcine tubulin (5 µM compound) is 106.3 ± 4.2 % of control; on purified porcine tubulin (10 µM compound), 123.2 % of control and 123.2 ± 4.5 % of control. Moreover, the IC50 was found to be 22.6 ± 7.2 µM with A431 cells [1]; 5.1 ± 1.4 µM in the experiment with MCF7 cells [2] (Homo sapiens, MCF7, 48 h); 50.9 ± 13.3 µM in the experiment on HaCaT cells [3]; 10 ± 3 µM in the experiment with MCF12A cells [7]. The Cell cycle effect entry in the experiment on MCF12A cells [5] and with MCF7 cells [6] was “G0/G1 phase arrest” in each case. The “Apoptosis induction (Annexin-V/PI)” value in experiment [8] is on record as “induced apoptosis in all the cell lines”.

Turning to `COc1ccc(OC)c(/C=C/c2ccc(SC)cc2)c1` [2,5-Dimethoxy-4′-methylthio-trans-stilbene], the IC50 amounted to 47.1 ± 9 µM in the experiment with A431 cells [1]; 10.2 ± 6.6 µM in the experiment with MCF7 cells [2] (Homo sapiens, MCF7, 48 h); 65 ± 24.5 µM in the experiment on HaCaT cells [3].

With `COc1ccccc1/C=C/c1ccc(SC)cc1` [2-Methoxy-4′-methylthio-trans-stilbene], the IC50 in the experiment with A431 cells [1] is 241 ± 10 µM; in the experiment on MCF7 cells [2] (Homo sapiens, MCF7, 48 h), 27.3 ± 12.4 µM; in the experiment with HaCaT cells [3], 106 ± 9.3 µM.

As for `COc1cc(/C=C/c2ccc(SC)cc2)cc(OC)c1OC` [3,4,5-MTS, 3,4,5-Trimethoxy-4′-methylthio-trans-stilbene], the “Number of TUNEL positive cells” value in [4] was “statistically significant increase in the number of TUNEL positive cells was observed only in HaCaT and A431”. The “Tubulin polymerization, steady state level” value on purified porcine tubulin (5 µM compound) is 113.4 ± 3.6 % of control; at purified porcine tubulin (10 µM compound), 132.9 % of control and 132.9 ± 17.1 % of control. Moreover, the IC50 with A431 cells [1] was 19.3 ± 5.5 µM; with MCF7 cells [2] (Homo sapiens, MCF7, 48 h), 2.07 µM; in the experiment with MCF7 cells [2], 2.1 ± 0.4 µM; with HaCaT cells [3] it was 10 ± 4.6 µM; in the experiment with MCF12A cells [7], 25.7 ± 4.3 µM. The Cell cycle effect entry in the experiment on MCF12A cells [5], with A431 cells [9] and with MCF7 cells [6] was “G2/M phase arrest” each time. Further, the “Apoptosis induction (Annexin-V/PI)” value in experiment [8] was “induced apoptosis in all the cell lines”.

With `COc1cc(/C=C/c2ccc(SC)cc2)cc(OC)c1` [3,5-Dimethoxy-4′-methylthio-trans-stilbene], the IC50 with A431 cells [1] was determined as 45.4 ± 7.2 µM; with MCF7 cells [2] (Homo sapiens, MCF7, 48 h), 4.8 ± 3.4 µM; in the experiment with HaCaT cells [3], 25.4 ± 13.9 µM.

Take `COc1cccc(/C=C/c2ccc(SC)cc2)c1` [3-Methoxy-4′-methylthio-trans-stilbene]: the IC50 in the experiment on A431 cells [1] was found to be 141 ± 2.8 µM; with MCF7 cells [2] (Homo sapiens, MCF7, 48 h), 6.6 ± 3.7 µM; with HaCaT cells [3], 183 ± 38.7 µM.

As for `COc1ccc(/C=C/c2cc(OC)c(OC)c(OC)c2)cc1` [DMU-212, 3,4,5,4′-trans-tetramethoxystilbene], in the experiment on MCF7 cells [10], the “Toxicity in MCF7 cells” value is reported as “submicromolar toxicity”. The “Effect on microtubule polymerization” value in the experiment on tubulin (DMU-212 at 2.5 μM versus paclitaxel at 10 μM) is reported as “comparable to that of paclitaxel”.

Turning to `CC(=O)O[C@H]1C(=O)[C@@]2(C)[C@H]([C@H](OC(=O)c3ccccc3)[C@]3(O)C[C@H](OC(=O)[C@H](O)[C@@H](NC(=O)c4ccccc4)c4ccccc4)C(C)=C1C3(C)C)[C@]1(OC(C)=O)CO[C@@H]1C[C@@H]2O` [Paclitaxel, reference compound], at purified porcine tubulin (10 µM compound), the “Tubulin polymerization, steady state level” value was 142.3 % of control and 142.3 ± 9.2 % of control.

As for `Oc1ccc(/C=C/c2cc(O)cc(O)c2)cc1` [Resveratrol, trans-3,4′,5-trihydroxystilbene], the “Number of TUNEL positive cells” value in experiment [4] is “statistically significant in all the cell lines studied”. For the same compound, in the experiment on tubulin, the “Effect on tubulin polymerization” value is on record as “does not influence tubulin polymerization”. For the same compound, the 50% inhibitory concentration (IC50) came to 49.4 ± 3.8 µM with A431 cells [1]; 24.6 ± 3.8 µM with MCF7 cells [2] (Homo sapiens, MCF7, 48 h); 85.2 ± 29.2 µM with HaCaT cells [3]; 93.5 ± 12.1 µM in the experiment on MCF12A cells [7]. Further, the Cell cycle effect entry was “blocked the cell cycle in S-phase” in the experiment with MCF12A cells [5], “arrested in G0/G1-phase” in the experiment on HaCaT cells [11], “blocked the cell cycle in S-phase” with A431 cells [9] and “blocked the cell cycle in S-phase” with MCF7 cells [6]. In [8], the “Apoptosis induction (Annexin-V/PI)” value is on record as “apoptosis was evident in all the tested cell lines”.
